Consider five compounds from BindingDB's records for doi:10.1111/cbdd.12255 (Federal University of Rio De Janeiro, 2014).

Test [1] addresses T1, Amine oxidase [flavin-containing] B (Homo sapiens, UniProt P27338).
T1 sequence (P27338 whole entry): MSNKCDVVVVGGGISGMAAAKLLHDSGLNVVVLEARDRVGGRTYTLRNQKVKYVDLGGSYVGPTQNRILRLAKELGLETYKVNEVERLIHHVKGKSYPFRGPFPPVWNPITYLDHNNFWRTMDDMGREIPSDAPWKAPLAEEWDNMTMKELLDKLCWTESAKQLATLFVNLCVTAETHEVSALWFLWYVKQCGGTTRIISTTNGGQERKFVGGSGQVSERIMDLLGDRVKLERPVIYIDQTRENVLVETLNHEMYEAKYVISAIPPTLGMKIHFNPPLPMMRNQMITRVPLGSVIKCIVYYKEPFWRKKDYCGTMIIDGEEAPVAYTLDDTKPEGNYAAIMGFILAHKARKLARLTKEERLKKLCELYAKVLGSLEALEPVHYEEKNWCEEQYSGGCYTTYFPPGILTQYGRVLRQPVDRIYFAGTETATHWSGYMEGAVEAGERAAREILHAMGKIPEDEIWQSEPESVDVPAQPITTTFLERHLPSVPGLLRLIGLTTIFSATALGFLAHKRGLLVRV
The experiment in a line: MAO Assay. Particulars: pH 7.4; 37 °C. The procedure:
(§1) The reaction mixture (final volume 200 µL) contained 5 µg/mL MAO-A or MAO-B in a 50 mM sodium phosphate buffer pH 7.4, 1 mM p-tyramine (substrate for MAO-A) or 1 mM benzyl-amine (substrate for MAO-B), 1 U/mL HRP, and 200 µM AR was incubated, in the presence or absence of the inhibitors, at 37 °C for 45 min. The enzyme plus inhibitors were incubated at 37 °C for 20 min followed by the addition of the substrates, HRP and AR. The inhibitors were dissolved in 100% DMSO, and equivalent concentrations of DMSO alone (1-2%) were used as controls. Clorgyline (MAO-A inhibitor) or pargyline (MAO-B inhibitor) at 5 µM concentration was used as positive control for inhibition.

Test [2] has as its target T2, Amine oxidase [flavin-containing] A (Homo sapiens, UniProt P21397).
T2 sequence (P21397 whole entry): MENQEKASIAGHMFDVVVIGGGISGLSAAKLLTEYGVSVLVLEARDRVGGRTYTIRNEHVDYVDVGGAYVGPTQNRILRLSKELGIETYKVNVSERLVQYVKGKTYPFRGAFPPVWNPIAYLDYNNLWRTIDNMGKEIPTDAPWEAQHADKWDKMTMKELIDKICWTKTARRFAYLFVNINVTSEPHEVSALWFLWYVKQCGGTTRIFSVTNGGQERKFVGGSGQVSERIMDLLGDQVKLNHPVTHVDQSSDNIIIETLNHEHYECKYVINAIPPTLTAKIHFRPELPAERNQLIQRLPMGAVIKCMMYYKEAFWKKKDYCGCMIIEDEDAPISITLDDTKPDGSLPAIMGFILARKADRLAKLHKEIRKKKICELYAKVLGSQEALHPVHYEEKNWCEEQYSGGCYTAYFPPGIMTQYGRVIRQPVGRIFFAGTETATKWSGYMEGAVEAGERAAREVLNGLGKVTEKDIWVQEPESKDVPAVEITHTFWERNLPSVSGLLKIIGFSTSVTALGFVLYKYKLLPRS
Kind of test: MAO Assay. The conditions noted are these: pH 7.4; 37 °C. The procedure: as §1

As for `CC(C)C=C1C(=O)C(=O)c2ccccc2C1=O`, the inhibitory constant (Ki) (in general, the equilibrium dissociation constant of an inhibitor or competing ligand from its target) in test [1] worked out at 18 µM; in test [2], 35 µM.
In the same order, the values of `NCCCN(CCCC=Nc1cc(O)c2ccccc2c1O)Cc1ccccc1` [2‐({4‐[(3‐ aminopropyl)(benzyl)amino]butyl}amino)naphthalene‐ 1,4‐dione (Compound b2)] are 12 µM and 28 µM.
The like results for `CC(C)=Cc1c(N=CCCCN(CCCN)Cc2ccccc2)c(O)c2ccccc2c1O` [2‐({4‐[(3‐aminopropyl)(benzyl)amino]butyl}amino)‐3‐ (2‐methylprop‐1‐en‐1‐yl)naphthalene‐1,4‐dione (Compound c2)] were, in that order, 58 µM and 63 µM.
The like results for `CC(C)=CCc1c(N=CCCCN(CCCN)Cc2ccccc2)c(O)c2ccccc2c1O` [2‐({4‐[(3‐aminopropyl)(benzyl)amino]butyl}amino)‐3‐ (3‐methylbut‐2‐en‐1‐yl)naphthalene‐1,4‐dione (Compound a2)] were, in that order, 40 µM and 22 µM.
Regarding `CC(C)=CCC1C(=O)C(=O)c2ccccc2C1=O` (centres undefined) [4-hydroxy-3-(3-methylbut-2-enyl)naphthalene-1,2-dione], the Ki in test [1] was 59 µM.
